The record followed here is ChEMBL document CHEMBL1147038, “Structural basis for the specific inhibition of protein kinase G, a virulence factor of Mycobacterium tuberculosis” (Proc Natl Acad Sci U S A, 2007).

The target of test [1] is Serine/threonine-protein kinase PknG (Mycobacterium tuberculosis) (UniProt P9WI73). Nature of the test: Inhibition of Mycobacterium tuberculosis Protein kinase G by radiometric ATP consumptive assay.
Test [2] concerns J774. Nature of the test: Effect on Phorbol 12-myristate 13-acetate-induced cellular morphology in mouse J774 macrophage cells at 20 uM by video microscopy. In kind it is functional, cell-based.
For test [3], the system named is J774. In words: Effect on Phorbol 12-myristate 13-acetate-induced membrane ruffling in mouse J774 macrophage cells at 20 uM by video microscopy. In kind it is functional, cell-based.
In test [4] the test system is J774. In words: Effect on Phorbol 12-myristate 13-acetate-induced macropinocytosis in mouse J774 macrophage cells at 20 uM by video microscopy. In kind it is functional, cell-based.

Activity calls are given as the source filed them. The calls are words filed in the database; no cut-off is given here.

Sequence of Serine/threonine-protein kinase PknG (Mycobacterium tuberculosis) (P9WI73 whole entry): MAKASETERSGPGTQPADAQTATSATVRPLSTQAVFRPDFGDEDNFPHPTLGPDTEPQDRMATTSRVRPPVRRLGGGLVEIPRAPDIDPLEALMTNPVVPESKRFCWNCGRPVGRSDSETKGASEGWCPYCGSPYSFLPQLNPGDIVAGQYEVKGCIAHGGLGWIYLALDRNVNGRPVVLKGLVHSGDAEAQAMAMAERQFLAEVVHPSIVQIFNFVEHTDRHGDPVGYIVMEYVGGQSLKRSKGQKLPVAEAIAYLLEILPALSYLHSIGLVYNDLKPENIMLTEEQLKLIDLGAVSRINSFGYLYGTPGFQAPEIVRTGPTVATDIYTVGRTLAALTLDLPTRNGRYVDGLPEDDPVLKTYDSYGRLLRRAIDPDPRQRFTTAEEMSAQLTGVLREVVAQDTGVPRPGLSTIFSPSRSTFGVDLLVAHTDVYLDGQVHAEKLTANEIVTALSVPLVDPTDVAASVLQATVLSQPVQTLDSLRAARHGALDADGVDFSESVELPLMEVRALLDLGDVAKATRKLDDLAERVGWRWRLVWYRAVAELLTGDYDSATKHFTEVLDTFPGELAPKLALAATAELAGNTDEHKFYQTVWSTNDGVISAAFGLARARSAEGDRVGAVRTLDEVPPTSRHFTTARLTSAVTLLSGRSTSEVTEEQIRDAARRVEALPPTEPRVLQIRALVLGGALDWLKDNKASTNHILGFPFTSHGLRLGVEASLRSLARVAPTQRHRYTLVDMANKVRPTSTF

As to `NC(=O)c1c(NC(=O)C2CC2)sc2c1CCCC2`, the outcome in test [1] was Active. Moreover, the outcome in test [2], in test [3] and in test [4] was inactive.
